Experiment [1] relates to RyR2. In words: Washout (reversibility/avidity) single channel experiments, RyR2. The experiment is classed as biochemical, sheep (cardiac SR). The following applies: 10 nM and 1 μM. As for the experimental part: Cardiac SR was prepared from mature female crossbred sheep hearts, and skeletal SR vesicles were isolated from the back and leg muscles of mature female New Zealand white rabbits[29],[54] with approval from the ANU Animal Experiment Ethics Committee Protocol Number A2015/35. […] Solutions for vesicle incorporation contained (mM): cis 230 caesium methanesulfonate (CsMS); 20 CsCl; 1 CaCl2 and 10 […] (TES) pH 7.4 and trans 30 CsMS; 20 CsCl; 1 CaCl2 10 TES; pH 7.4. SR vesicles routinely incorporated with the cytoplasmic surface of the SR and RyR facing the cis chamber. Following incorporation, 200 mM CsMS was added to the trans solution and the cis solution exchanged with recording solution containing (mM): 230 CsMS; 20 CsCl; 0.001 CaCl2;10 TES and pH 7.4, with [Ca^2+] set by a [BAPTA] determined using a Ca^2+ electrode. […] Electrophysiology experiments were analysed using Channel 2 (P.W. Gage, M. Smith, Australian National University) and Channel 3 (N.W. Laver, University of Newcastle, Australia) software, available from the authors upon request. […] Following most incorporation events, a single channel only was active in the bilayer and channel open probability (Po), mean open time (To), mean closed time (Tc) and open event frequency (Fo) were measured. […] In all experiments control channel activity was recorded for 3 to 5 min before exposure to the test compound. […]

In experiment [2] the test system is sarcoplasmic reticulum (SR) in mouse extensor digitorum longus (EDL) fibers. In words: SR Ca2+ leak in mechanically-skinned EDL muscle fibers (total SR Ca2+ content, [CaT]SR, after 1 min leak). Format: cell-based, mouse (C57/Bl6). An excerpt:
All experiments were approved by The University of Queensland Animal Ethics Committees. Male and female C57/Bl6 2–6-month-old mice were sacrificed by asphyxiation via CO2 exposure and the EDL muscles were rapidly excised. The EDL was pinned at resting length in a petri dish lined with Sylgard 184 (Dow Corning, Midland, MI) and immersed in paraffin oil (Ajax Chemicals, Sydney, Australia). Segments of individual fibers were mechanically skinned using jeweler’s forceps and pinned out unstretched under oil[37]–[39]. The skinned fiber was then mounted at 120% of resting length on a force transducer (Myotronic UG, Heidelberg, Germany) before transfer to a 2-ml Perspex bath containing standard K^+-based solution that broadly mimics the intracellular milieu. […] All chemicals were purchased from Sigma-Aldrich (St Louis, MO, USA) unless specified otherwise.
Variations of the standard solution were prepared. To deplete the caffeine releasable Ca^2+ (“full release solution”), 30 mM caffeine was added, [Mg^2+] was lowered to 0.05 mM (total Mg^2+ of 2.1 mM) and free EGTA was adjusted to 0.5 mM (pCa 8.5) to chelate released Ca^2+. To measure the maximum force produced by the skinned fiber, all HDTA was replaced by EGTA (relaxing solution) or CaEGTA (maximum Ca^2+ activating solution). The relaxing solution contained 50 mM EGTA and no added Ca^2+ (pCa > 9) and the maximum Ca^2+-activating solution contained 49.5 mM Ca^2+ (pCa 4.7), with total Mg^2+ of 10.3 and 8.1 mM, respectively, to maintain the free [Mg^2+] at 1 mM. A “leak solution” was also prepared, where [Mg^2+] set at 0.1 mM (total Mg^2+ of 3.4 mM) to increase the PO of RyR and with 2 mM EGTA (pCa ~8.5) to chelate leaky Ca^2+ from the SR. […] The BAPTA solution used to pre-equilibrate fibers before lysing was similar to the standard K-HDTA solution but EGTA was replaced with 0.1–1.6 mM BAPTA[37],[39].
The skinned fiber was then equilibrated for 20 s in a solution with a set [BAPTA] before being placed in a freshly triturated emulsion of Triton X-100 in paraffin oil (TX–oil) (10% v/v). The Ca^2+ released upon the membrane lysing rapidly binds to the known amount of BAPTA present within the fiber and to other sites, predominantly troponin C (TnC). The pre-equilibrating [BAPTA] was chosen such that the fiber produced a finite, non-maximal force response upon lysis. Pre-treatment of the fiber with “full release solution” allowed the non-SR Ca^2+ content of the skinned fiber to be assayed. The total amount of Ca^2+ present in the fiber could be calculated from the [BAPTA] in the equilibration solution and the magnitude of the force response. Data are presented as mean ± SD, with n denoting the number of fibers examined. Statistical significance (p < 0.05) was determined with One-way ANOVA.

These results are taken from publication PMC9950431, “A bivalent remipede toxin promotes calcium release via ryanodine receptor activation” (Nature Communications, 2023).

For the substance φ-Xibalbin3-Xt3a, the “channel activity during washout” value in experiment [1] was “activity did appear to increase somewhat during washout”. In experiment [2] (10 nM), the “efficiency to increase SR Ca2+ leakage (order)” value is on record as “Xt3a > Xt3a-D1 ~ IpTxA > Xt3a-D2”. Besides, in experiment [2] (10 nM peptide in leak solution, 1 min leak, mean ± SD, control leak 18 ± 7%), the “depletion of [CaT]SR” value came out at 76 ± 5%. The “Relative amount of total Ca2+ left in the SR ([CaT]SR)” value in experiment [2] (10 nM peptide, 1 min leak, relative to Pre, fiber 2 of column) is reported as 20.6; in experiment [2] (10 nM peptide, 1 min leak, relative to Pre, fiber 3 of column) it was 24.9; in experiment [2] (10 nM peptide, 1 min leak, relative to Pre, fiber 4 of column) it was 22.9; in experiment [2] (10 nM peptide, 1 min leak, relative to Pre, fiber 5 of column), 23.5; in experiment [2] (10 nM peptide, 1 min leak, relative to Pre, fiber 6 of column), 22.7; in experiment [2] (10 nM peptide, 1 min leak, relative to Pre, fiber 7 of column), 27.4. For the same substance, the “Relative amount of total Ca2+ left in the SR ([CaT]SR)” value was 27.5 in experiment [2] (10 nM peptide, 1 min leak, relative to Pre, fiber 8 of column); 25.7 in experiment [2] (10 nM peptide, 1 min leak, relative to Pre, fiber 9 of column); 30.9 in experiment [2] (10 nM peptide, 1 min leak, relative to Pre, fiber 10 of column); 32.9 in experiment [2] (10 nM peptide, 1 min leak, relative to Pre, fiber 11 of column); 22.4 in experiment [2] (10 nM peptide, 1 min leak, relative to Pre, fiber 12 of column); 13.3 in experiment [2] (10 nM peptide, 1 min leak, relative to Pre, fiber 13 of column). The “Relative amount of total Ca2+ left in the SR ([CaT]SR)” value in experiment [2] (10 nM peptide, 1 min leak, relative to [CaT]SR before the leak (Pre), fiber 1 of column) turned out to be 21.9. In experiment [2] (10 nM peptide, 1 min leak, relative to Pre, mean (n = 13 Xt3a, n = 10 others)), the “Relative amount of total Ca2+ left in the SR ([CaT]SR), mean” value was 24.4.
